# Test results: PMC9027920, “Development of New Thiophene-Containing Triaryl Pyrazoline Derivatives as PI3Kγ Inhibitors” (Molecules, 2022)
# Columns and labels:
# PI3Kα = target: T1, PI3Kα (Homo sapiens, UniProt P42336); test: competitive fluorescence polarization kinase activity assay, PI3Kα; type: biochemical; conditions: fluorescence polarization kinase kit
# T1 construct: purchased Perkin–Elmer
# Source text: (§1) Initially, we directly tested the inhibition potency of the synthesized compounds on PI3K by using competitive fluorescence polarization kinase kits, as mentioned in previous investigations. […] According to the significance and research maturity of the isoforms as referenced, the PI3Kα and PI3Kγ isoforms were preliminarily included here.
# (§2) The competitive fluorescence polarization kinase activity assay was used to test the inhibition potency on PI3K, as mentioned in previous investigations. In general, following the instruction of the Kit (Perkin–Elmer, Waltham, MA, USA), the 10 μL scale of PI3K activity reaction was conducted with the substrate diC8-PI(4,5)P2 in a solution containing 2.5 mM MgCl2, 5 mM HEPES, […] and 10 mM DTT at pH 7.0. Into the 10 μL reaction wells with 50 ng enzyme and […], different concentrations of the tested compounds were added, respectively. The mixture was incubated at room temperature for 3 h, and the reactions were then quenched. Afterwards, the phosphoinositide binding protein and the fluorescent dye-labeled phosphoinositide tracer were added in sequence. In the dark environment in 384-well black nonbinding plates (Corning, Corning, NY, USA), the further incubation lasted for 1 h. With appropriate filters, the polarization values of the corresponding dye were recorded to calculate the enzymatic activity of PI3K in this reacting procedure. This assay was universal for evaluating the activity of different PI3K isoforms.
# PI3Kγ = target: T2, PI3Kγ (Homo sapiens, UniProt P48736); test: competitive fluorescence polarization kinase activity assay, PI3Kγ; type: biochemical; conditions: for IC50: fluorescence polarization kinase kit; for selectivity index: ratio of the IC50 values for PI3Kα and PI3Kγ
# T2 construct: purchased Perkin–Elmer
# T2 sequence (P48736 whole entry, species assumed): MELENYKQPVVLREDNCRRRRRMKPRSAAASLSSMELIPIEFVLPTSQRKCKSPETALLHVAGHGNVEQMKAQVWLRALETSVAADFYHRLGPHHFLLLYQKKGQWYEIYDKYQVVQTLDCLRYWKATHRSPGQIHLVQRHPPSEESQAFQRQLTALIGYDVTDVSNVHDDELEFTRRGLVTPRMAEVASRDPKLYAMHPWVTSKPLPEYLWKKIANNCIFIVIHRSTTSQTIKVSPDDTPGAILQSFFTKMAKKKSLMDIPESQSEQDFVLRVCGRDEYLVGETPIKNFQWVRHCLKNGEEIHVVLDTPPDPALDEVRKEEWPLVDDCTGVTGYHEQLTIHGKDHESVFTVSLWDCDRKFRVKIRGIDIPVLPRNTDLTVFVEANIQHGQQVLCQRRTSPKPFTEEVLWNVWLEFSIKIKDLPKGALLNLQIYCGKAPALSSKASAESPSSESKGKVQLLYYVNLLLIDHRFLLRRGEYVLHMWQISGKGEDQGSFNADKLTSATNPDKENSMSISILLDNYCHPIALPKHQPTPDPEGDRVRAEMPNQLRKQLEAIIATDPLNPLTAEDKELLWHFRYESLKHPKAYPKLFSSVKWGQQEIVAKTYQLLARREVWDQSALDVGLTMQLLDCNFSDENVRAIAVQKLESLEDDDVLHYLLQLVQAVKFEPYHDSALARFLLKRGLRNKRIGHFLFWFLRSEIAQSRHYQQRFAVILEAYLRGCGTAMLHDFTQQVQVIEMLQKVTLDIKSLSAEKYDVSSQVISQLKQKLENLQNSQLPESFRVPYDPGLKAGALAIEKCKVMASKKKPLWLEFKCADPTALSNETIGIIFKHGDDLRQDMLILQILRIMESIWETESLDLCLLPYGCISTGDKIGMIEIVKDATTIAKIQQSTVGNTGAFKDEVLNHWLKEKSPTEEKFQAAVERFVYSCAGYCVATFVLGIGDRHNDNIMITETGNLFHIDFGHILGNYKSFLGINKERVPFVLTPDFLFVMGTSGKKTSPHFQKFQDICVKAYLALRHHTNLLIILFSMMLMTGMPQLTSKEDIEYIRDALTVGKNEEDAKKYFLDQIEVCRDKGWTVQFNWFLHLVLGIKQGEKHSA
# Source text: as §1, §2
# [1] = cytotoxicity, MTT, L02 cells; type: cell-based; conditions: human, L02 cells (human normal hepatocyte line)
# Procedure: (§3) In this section, the anti-proliferation activity of the synthesized compounds 3a–3t was evaluated. Herein, HeLa (human epithelial cervical cancer cell line), HepG2 (human hepatoellular carcinoma cell line) and L02 (human normal hepatocyte line) cells were used. According to the affection on L02 cells, most of the tested compounds were low-toxic. […] Basically, many of the compounds in this series could inhibit the growth of HeLa and HepG2 cells effectively. The anti-proliferation inhibitory activity and the enzymatic inhibition potency indicated the consistent tendencies; the SAR of the observed anti-proliferation activity was also similar to that of the enzymatic inhibition, especially that of PI3Kγ inhibition; thus, the cellular inhibition might be caused by the effect on PI3K. […] Thus, HepG2 cells were selected to conduct further investigations at the protein level.
# (§4) In this section, the cells included HeLa (human epithelial cervical cancer cell line), HepG2 (human hepatocellular cancer cell line) and L02 (human normal hepatocyte line) to evaluate the anti-proliferation activity of the synthesized compounds. The cells were cultured in Dulbecco’s modified eagle medium (DMEM, Hyclone) with the addition of 10% fetal bovine serum (FBS, BI), 2 mmol/L L-glutamine, 100 units/mL penicillin-streptomycin (Sigma-Aldrich, Saint Louis, MO, USA), […] (Hyclone, Logan, UT, USA). The environment was 5% CO2 contained atmosphere at 37 °C. The tests of anti-proliferative activity were conducted under a standard method with the typical dye 3-(4,5-dimethylthiazol-2-yl)-2,5-diphenyltetrazolium bromide (MTT) in triplicate. The LX300 Epson Diagnostic micro-plate reader (Nagano, Japan) was used to record the absorbance at 570 nm (OD570).
# [2] = test system: HeLa (human epithelial cervical cancer cell line) cells; test: anti-proliferation assay, MTT, HeLa cells; type: cell-based
# Procedure: as §3, §4
# [3] = test system: HepG2 (human hepatocellular cancer cell line) cells; test: anti-proliferation assay, MTT, HepG2 cells; type: cell-based; conditions: read-out: GI50 HepG2γ
# Procedure: as §3, §4
# T1 sequence (P42336 whole entry, species assumed): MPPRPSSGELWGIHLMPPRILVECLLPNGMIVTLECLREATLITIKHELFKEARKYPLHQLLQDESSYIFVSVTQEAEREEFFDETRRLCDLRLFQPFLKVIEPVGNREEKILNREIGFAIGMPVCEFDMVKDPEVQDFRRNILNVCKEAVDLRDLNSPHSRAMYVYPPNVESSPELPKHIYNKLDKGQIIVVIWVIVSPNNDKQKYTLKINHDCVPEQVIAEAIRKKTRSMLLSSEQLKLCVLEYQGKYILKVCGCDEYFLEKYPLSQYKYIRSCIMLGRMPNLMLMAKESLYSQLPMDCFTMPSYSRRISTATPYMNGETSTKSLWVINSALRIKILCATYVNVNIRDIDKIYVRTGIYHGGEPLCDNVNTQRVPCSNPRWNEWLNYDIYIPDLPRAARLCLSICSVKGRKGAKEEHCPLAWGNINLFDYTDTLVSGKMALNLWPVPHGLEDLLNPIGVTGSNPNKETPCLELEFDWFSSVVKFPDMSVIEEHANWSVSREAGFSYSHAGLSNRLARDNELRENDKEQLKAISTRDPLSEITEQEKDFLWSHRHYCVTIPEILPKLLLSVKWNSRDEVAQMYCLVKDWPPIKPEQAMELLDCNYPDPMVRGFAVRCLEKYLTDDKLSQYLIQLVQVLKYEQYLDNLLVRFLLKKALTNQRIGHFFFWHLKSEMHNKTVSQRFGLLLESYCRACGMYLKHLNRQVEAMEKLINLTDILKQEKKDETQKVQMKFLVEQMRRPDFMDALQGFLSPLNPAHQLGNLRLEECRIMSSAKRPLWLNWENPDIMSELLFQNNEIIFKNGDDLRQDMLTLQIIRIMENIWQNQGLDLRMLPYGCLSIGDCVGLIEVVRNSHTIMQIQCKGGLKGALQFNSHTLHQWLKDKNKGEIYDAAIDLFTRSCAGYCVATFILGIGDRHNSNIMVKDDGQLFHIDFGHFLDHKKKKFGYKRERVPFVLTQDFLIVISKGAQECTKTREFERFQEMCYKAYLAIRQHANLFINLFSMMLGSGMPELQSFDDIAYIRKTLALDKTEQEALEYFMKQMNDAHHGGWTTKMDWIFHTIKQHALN
# T1 sequence (P27986 whole entry partner, species assumed): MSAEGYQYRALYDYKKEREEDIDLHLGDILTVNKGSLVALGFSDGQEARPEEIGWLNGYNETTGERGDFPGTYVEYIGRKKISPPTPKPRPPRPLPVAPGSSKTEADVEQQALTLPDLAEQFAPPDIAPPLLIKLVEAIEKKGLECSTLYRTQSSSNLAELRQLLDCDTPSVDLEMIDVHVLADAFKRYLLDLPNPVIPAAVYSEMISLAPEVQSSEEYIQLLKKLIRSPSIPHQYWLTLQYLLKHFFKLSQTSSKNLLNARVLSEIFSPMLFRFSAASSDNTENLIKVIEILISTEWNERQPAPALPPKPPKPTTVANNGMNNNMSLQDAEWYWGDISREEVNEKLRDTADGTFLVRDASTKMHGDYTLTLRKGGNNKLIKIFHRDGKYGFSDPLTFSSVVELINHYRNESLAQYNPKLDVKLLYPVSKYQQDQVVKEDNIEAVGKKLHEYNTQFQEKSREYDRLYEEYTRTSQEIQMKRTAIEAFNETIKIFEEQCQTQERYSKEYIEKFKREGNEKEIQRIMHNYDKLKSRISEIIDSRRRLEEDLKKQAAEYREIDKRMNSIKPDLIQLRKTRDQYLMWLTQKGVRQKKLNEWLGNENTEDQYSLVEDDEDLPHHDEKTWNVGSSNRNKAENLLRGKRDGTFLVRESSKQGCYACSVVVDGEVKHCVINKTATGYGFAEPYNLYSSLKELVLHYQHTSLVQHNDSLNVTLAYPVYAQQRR
Compound,IC50 (PI3Kα) [µM],IC50 (PI3Kγ) [µM],GI50 [2] [µM],GI50 [3] [µM],melting point [°C],selectivity index (PI3Kγ),CC50 [1] [µM]
"COc1ccc(C(=O)N2N=C(c3ccc(-c4ccc(Br)cc4)cc3)CC2c2cccs2)cc1OC (centres unmarked) [3k, (3-(4’-Bromo-[1,1’-biphenyl]-4-yl)-5-(thiophen-2-yl)-4,5-dihydro-1H-pyrazol-1-yl)(3,4-dimethoxyphenyl)methanone]",1.1 ± 0.061,42.7 ± 2.6,44.6 ± 2.1,46.6 ± 1.3,75 to 77,–,178 ± 8.7
"COc1ccc(C(=O)N2N=C(c3ccc(-c4ccccc4)cc3)CC2c2cccs2)cc1OC (centres unmarked) [3j, (3-([1,1’-Biphenyl]-4-yl)-5-(thiophen-2-yl)-4,5-dihydro-1H-pyrazol-1-yl)(3,4-dimethoxyphenyl)methanone]",3.92 ± 0.064,> 100,75.7 ± 2.9,50.6 ± 1,154 to 156,–,196 ± 10
"O=c1cc(N2CCOCC2)oc2c(-c3ccccc3)cccc12 [LY294002, reference compound]",–,–,21.1 ± 2,26.5 ± 1.9,–,–,51.3 ± 1.4
"COc1ccc(C(=O)N2N=C(c3ccc(SC)cc3)CC2c2cccs2)cc1OC (centres unmarked) [3h, (3-(4-((λ^1-Sulfanyl)-λ^5-methyl)phenyl)-5-(thiophen-2-yl)-4,5-dihydro-1H-pyrazol-1-yl) (3,4-dimethoxyphenyl)methanone]",64.4 ± 3.6,18.1 ± 1.7,61.3 ± 2.3,53.3 ± 1.9,63 to 65,–,180 ± 4.6
"COc1ccc(C(=O)N2N=C(c3ccc(OC)c4ccccc34)CC2c2cccs2)cc1OC (centres unmarked) [3o, (3,4-Dimethoxyphenyl)(3-(4-methoxynaphthalen-1-yl)-5-(thiophen-2-yl)-4,5-dihydro-1H-pyrazol-1-yl)methanone]",8.81 ± 0.17,9.91 ± 0.26,18.1 ± 0.85,16.9 ± 0.36,72 to 74,–,137 ± 4.7
"COc1ccc(C2=NN(C(=O)c3ccc(OC)c(OC)c3)C(c3cccs3)C2)cc1 (centres unmarked) [3f, (3,4-Dimethoxyphenyl)(3-(4-methoxyphenyl)-5-(thiophen-2-yl)-4,5-dihydro-1H-pyrazol-1-yl)methanone]",26.6 ± 1.01,0.57 ± 0.044,23.7 ± 1.2,15.1 ± 0.42,53 to 55,46.7,112 ± 8.3
"COc1ccc(C(=O)N2N=C(c3ccc(OC)c(OC)c3)CC2c2cccs2)cc1OC (centres unmarked) [3q, (3,4-Dimethoxyphenyl)(3-(3,4-dimethoxyphenyl)-5-(thiophen-2-yl)-4,5-dihydro-1H-pyrazol-1-yl)methanone]",5.24 ± 0.13,0.43 ± 0.036,4.72 ± 0.12,4.22 ± 0.13,127 to 128,12.2,41.3 ± 2.6
"COc1ccc(C(=O)N2N=C(c3ccc(C)cc3)CC2c2cccs2)cc1OC (centres unmarked) [3i, (3,4-Dimethoxyphenyl)(5-(thiophen-2-yl)-3-(p-tolyl)-4,5-dihydro-1H-pyrazol-1-yl)methanone]",89.5 ± 3.4,3.03 ± 0.085,66.6 ± 1.2,48.7 ± 1.8,165 to 167,–,151 ± 8.9
"COc1ccc(C(=O)N2N=C(c3ccccc3F)CC2c2cccs2)cc1OC (centres unmarked) [3b, (3,4-Dimethoxyphenyl)(3-(2-fluorophenyl)-5-(thiophen-2-yl)-4,5-dihydro-1H-pyrazol-1-yl)methanone]",> 100,4.43 ± 0.2,77.9 ± 3.9,50.2 ± 1.6,118 to 120,–,152 ± 9.5
"COc1ccc2cc(C3=NN(C(=O)c4ccc(OC)c(OC)c4)C(c4cccs4)C3)ccc2c1 (centres unmarked) [3p, (3-(6-((λ1-Oxidanyl)-λ^5-methyl)naphthalen-2-yl)-5-(thiophen-2-yl)-4,5-dihydro-1H-pyrazol-1-yl)(3,4-dimethoxyphenyl)methanone]",0.56 ± 0.045,3.76 ± 0.19,6.81 ± 0.24,6.31 ± 0.54,74 to 76,–,67.1 ± 3.9
"COc1ccc(C(=O)N2N=C(c3ccc(I)cc3)CC2c2cccs2)cc1OC (centres unmarked) [3m, (3,4-Dimethoxyphenyl)(3-(4-iodophenyl)-5-(thiophen-2-yl)-4,5-dihydro-1H-pyrazol-1-yl)methanone]",75.6 ± 2.4,2.52 ± 0.055,57.9 ± 3.6,40.1 ± 1.4,69 to 71,–,141 ± 5.6
"COc1ccc(C(=O)N2N=C(c3ccc(OCc4ccccc4)cc3)CC2c2cccs2)cc1OC (centres unmarked) [3g, (3-(4-(Benzyloxy)phenyl)-5-(thiophen-2-yl)-4,5-dihydro-1H-pyrazol-1-yl)(3,4-dimethoxyphenyl)methanone]",0.92 ± 0.056,26.9 ± 1.4,31.6 ± 0.9,31.6 ± 1.4,60 to 62,–,104 ± 5.4
"COc1ccc(C(=O)N2N=C(c3ccc4ccccc4c3)CC2c2cccs2)cc1OC (centres unmarked) [3n, (3,4-Dimethoxyphenyl)(3-(naphthalen-2-yl)-5-(thiophen-2-yl)-4,5-dihydro-1H-pyrazol-1-yl)methanone]",12 ± 1.1,1.79 ± 0.049,11.1 ± 1.2,8.85 ± 0.31,149 to 151,–,62.6 ± 2.6

# Continued, in another order:
IC50 (PI3Kα) [µM],IC50 (PI3Kγ) [µM],GI50 [2] [µM],GI50 [3] [µM],melting point [°C],selectivity index (PI3Kγ),Compound,CC50 [1] [µM]
2.08 ± 0.099,1.12 ± 0.081,5.9 ± 0.2,5.51 ± 0.2,76 to 78,–,"COc1ccc(C(=O)N2N=C(c3cccc([N+](=O)[O-])c3)CC2c2cccs2)cc1OC (centres unmarked) [3e, (3,4-Dimethoxyphenyl)(3-(3-nitrophenyl)-5-(thiophen-2-yl)-4,5-dihydro-1H-pyrazol-1-yl)methanone]",58.4 ± 2.6
> 100,9.15 ± 0.14,124 ± 9.7,110 ± 8.1,77 to 79,–,"COc1ccc(C(=O)N2N=C(c3ccc(Br)cn3)CC2c2cccs2)cc1OC (centres unmarked) [3t, (3-(5-Bromopyridin-2-yl)-5-(thiophen-2-yl)-4,5-dihydro-1H-pyrazol-1-yl)(3,4-dimethoxyphenyl)methanone]",> 300
30.9 ± 1.3,4.21 ± 0.072,26.3 ± 1.7,20.4 ± 2,50 to 51,–,"COc1ccc(C(=O)N2N=C(c3cccc(F)c3)CC2c2cccs2)cc1OC (centres unmarked) [3c, (3,4-Dimethoxyphenyl)(3-(3-fluorophenyl)-5-(thiophen-2-yl)-4,5-dihydro-1H-pyrazol-1-yl)methanone]",94.5 ± 4.3
> 100,7.48 ± 0.22,109 ± 5.8,61.1 ± 3.2,141 to 143,–,"COc1ccc(C(=O)N2N=C(c3ccccc3)CC2c2cccs2)cc1OC (centres unmarked) [3a, (3,4-Dimethoxyphenyl)(3-phenyl-5-(thiophen-2-yl)-4,5-dihydro-1H-pyrazol-1-yl)methanone]",174 ± 10
17.1 ± 0.58,5.11 ± 0.083,20.1 ± 1.7,15.5 ± 0.87,71 to 73,–,"COc1ccc(C(=O)N2N=C(c3ccc(Br)cc3)CC2c2cccs2)cc1OC (centres unmarked) [3l, (3-(4-Bromophenyl)-5-(thiophen-2-yl)-4,5-dihydro-1H-pyrazol-1-yl)(3,4-dimethoxyphenyl)methanone]",86.6 ± 3.5
78.7 ± 4,2.22 ± 0.072,57.1 ± 2.6,42.6 ± 1.9,124 to 126,–,"COc1ccc(C(=O)N2N=C(c3cccc(Br)c3)CC2c2cccs2)cc1OC (centres unmarked) [3d, (3-(3-Bromophenyl)-5-(thiophen-2-yl)-4,5-dihydro-1H-pyrazol-1-yl)(3,4-dimethoxyphenyl)methanone]",120 ± 4.7
4.13 ± 0.062,1.37 ± 0.055,6.2 ± 0.22,5.55 ± 0.41,104 to 106,–,"COc1ccc(C(=O)N2N=C(c3ccc(C)c(C)c3)CC2c2cccs2)cc1OC (centres unmarked) [3r, (3,4-Dimethoxyphenyl)(3-(3,4-dimethylphenyl)-5-(thiophen-2-yl)-4,5-dihydro-1H-pyrazol-1-yl)methanone]",52.5 ± 3.2
